Data as given in patent US4659717A, “Dihydropyridines useful in the treatment of angina and stroke” (Eli Lilly and Company, priority 1985, dated 1987).
pIC50: −log10 of the molar value.

Each compound was assayed on Dog Coronary Artery (assay: Dog coronary artery test: relaxation of KCl-contracted coronary artery rings). Conditions: Canis lupus familiaris, coronary artery rings contracted with 50 mM KCl, 37° C.; IC50 = 50% relaxation; mean values, probit analysis.
Assay type: cell-based
Method: Mongrel dogs of either sex and weighing 15 to 30 kg were anesthetized with pentobarbital (35 mg/kg). Each heart was quickly removed through a right thoracotomy and placed in Kreb's bicarbonate solution of the following composition (mM/L): NaCl, 118.2; KCl, 4.6; CaCl2.2H2 O, 1.6; KH2 PO4, 1.2; MgSO4.7H2 O, 1.2; NaHCO3, 24.8; and dextrose, 10.0. The medium was kept at room temperature and saturated with 95% O2 /5% CO2. The left anterior descending and circumflex coronary arteries were isolated and used either immediately or stored overnight at 5° C. Arteries were cut into rings approximately 2 to 3 mm wide, placed on 2 L-shaped hooks and mounted in a 10 ml organ bath by attaching one hook to a stationary glass rod and the other hook to a force-displacement transducer. Tissue medium consisted of Kreb's bicarbonate solution maintained at 37° C. and bubbled with 95 % O2 /5% CO2. Artery rings were equilibrated for 1-2 hours under a resting tension of 3 g. Tissue medium was then changed to one containing 50 mM KCl and 72.8 mM NaCl but otherwise identical to Kreb's bicarbonate solution. After tissues achieved a steady state contractile tension (1-2 hours) a given test agent was added to each bath and concentration-response curves determined. […] At the end of the concentration-response curve, tissue medium was changed to one identical to the 50 mM KCl buffer but containing 2.5 mM EGTA and no CaCl2.2H2 O to obtain complete relaxation of the tissue. Percent relaxation was then determined for each concentration and values producing 50% relaxation (IC50) were estimated using a probit analysis.
For `CCOC(=O)C1=C(C)NC(C)=C(C(=O)OCC)C1c1csc2c(C)nccc12` [Example 14, 1,4-Dihydro-2,6-dimethyl-4-(7-methylthieno[2,3-c]pyridin-3-yl)-3,5-pyridinedicarboxylic acid, diethyl ester], the pIC50 was 5.50.
`CCOC(=O)C1=C(C)NC(C)=C(C(=O)OCC)C1c1csc2cc(N)ccc12` [Example 29, 4-(6-Aminobenzo[b]thien-3-yl)-1,4-dihydro-2,6-dimethyl-3,5-pyridinecarboxylic acid, diethyl ester] gave a pIC50 of 5.87.
`COC(=O)C1=C(C)NC(C)=C(C(=O)OC(C)(C)C)C1c1csc2ccncc12` (stereo not shown) [Example 45, 1,4-Dihydro-2,6-dimethyl-4-thieno[3,2-c]pyridin-3-yl-3,5-pyridinedicarboxylic acid, methyl 1,1-dimethylethyl ester] gave a pIC50 of 6.19.
With `COC(=O)C1=C(C)NC(C)=C(C(=O)OCC2CC2)C1c1csc2cccnc12` (stereo not shown) [Example 46, 1,4-Dihydro-2,6-dimethyl-4-thieno[3,2-b]pyridin-3-yl-3,5-pyridinedicarboxylic acid, cyclopropylmethyl methyl ester] the pIC50 was 7.08.
With `COC(=O)C1=C(C)NC(C)=C(C(=O)OCCC#N)C1c1csc2ccncc12` (stereo not shown) [Example 34, 1,4-Dihydro-2,6-dimethyl-4-thieno[3,2-c]pyridin-3-yl-3,5-pyridinedicarboxylic acid, 2-cyanoethyl methyl ester] the pIC50 was 6.50.
With `CCOC(=O)C1=C(C)NC(C)=C(C(=O)OCC)C1c1c(SC)sc2ccccc12` [Example 15, 1,4-Dihydro-2,6-dimethyl-4-[2-(methylthio)benzo[b]thien-3-yl]-3,5-pyridinedicarboxylic acid, diethyl ester] the pIC50 was 5.56.
In the case of `CC1=C(C(=O)OCCN(C)Cc2ccccc2)C(c2csc3ccccc23)C(C(=O)OCCN(C)Cc2ccccc2)=C(C)N1` [Example 32], the pIC50 was 4.67.
